Tested on: Female Sprague-Dawley rats
Details: for GFAP level relative to control animals / S-100b level relative to control animals / UCH-L1 level relative to control animals: rats, biofluids, 30, 60, 90, 120 min after dosing
Protocol: Acute oral In vivo drug candidate screening for neurotoxicity. […] A total of four to eight animals of are used for each dose level investigated.
At 30, 60, 90, and 120 minutes following dosing, the rats are sacrificed by decapitation and blood is obtained by cardiac puncture. The levels of biofluids S-100β, UCH-L1, and GFAP are analyzed by sandwich ELISA or western blot by using biomarker specific antibodies.

| SMILES | GFAP level relative to control animals | S-100b level relative to control animals | UCH-L1 level relative to control animals | CSF concentration of GFAP relative to control animals (rat, in vivo) | CSF concentration of UCH-L1 relative to control animals (rat, in vivo) |
| --- | --- | --- | --- | --- | --- |
| N.N.[Cl][Pt][Cl] [Cisplatin, cisplatin] | increase | increase | increase |  |  |
| CN1CC=C(c2ccccc2)CC1 [MPTP] | increase | increase | increase |  |  |
| C=C(C)[C@H]1CN[C@H](C(=O)O)[C@H]1CC(=O)O [kainic acid] | increase | increase | increase |  |  |
| CN[C@@H](C)Cc1ccccc1 [methamphetamine] |  | Modest increase |  | increase | increase |
